Results taken from patent US11541050B2, “Pyrimidine derivatives for the treatment of viral infections” (JANSSEN SCIENCES IRELAND UC, priority 2011, dated 2023).

Columns and labels:
[1] = target: T1, human TLR8 (wild type sequence) (Homo sapiens, UniProt Q9NR97); test: TLR8 cellular NFκB-luc reporter assay, wild type TLR8; assay type: cell-based; parameters: unit not given here; conditions: lowest effective concentration, wild type TLR8 (compounds 1-73)
T1 construct: expressed in transfected cells; host or cells: HEK293
T1 sequence (Q9NR97 27-1041): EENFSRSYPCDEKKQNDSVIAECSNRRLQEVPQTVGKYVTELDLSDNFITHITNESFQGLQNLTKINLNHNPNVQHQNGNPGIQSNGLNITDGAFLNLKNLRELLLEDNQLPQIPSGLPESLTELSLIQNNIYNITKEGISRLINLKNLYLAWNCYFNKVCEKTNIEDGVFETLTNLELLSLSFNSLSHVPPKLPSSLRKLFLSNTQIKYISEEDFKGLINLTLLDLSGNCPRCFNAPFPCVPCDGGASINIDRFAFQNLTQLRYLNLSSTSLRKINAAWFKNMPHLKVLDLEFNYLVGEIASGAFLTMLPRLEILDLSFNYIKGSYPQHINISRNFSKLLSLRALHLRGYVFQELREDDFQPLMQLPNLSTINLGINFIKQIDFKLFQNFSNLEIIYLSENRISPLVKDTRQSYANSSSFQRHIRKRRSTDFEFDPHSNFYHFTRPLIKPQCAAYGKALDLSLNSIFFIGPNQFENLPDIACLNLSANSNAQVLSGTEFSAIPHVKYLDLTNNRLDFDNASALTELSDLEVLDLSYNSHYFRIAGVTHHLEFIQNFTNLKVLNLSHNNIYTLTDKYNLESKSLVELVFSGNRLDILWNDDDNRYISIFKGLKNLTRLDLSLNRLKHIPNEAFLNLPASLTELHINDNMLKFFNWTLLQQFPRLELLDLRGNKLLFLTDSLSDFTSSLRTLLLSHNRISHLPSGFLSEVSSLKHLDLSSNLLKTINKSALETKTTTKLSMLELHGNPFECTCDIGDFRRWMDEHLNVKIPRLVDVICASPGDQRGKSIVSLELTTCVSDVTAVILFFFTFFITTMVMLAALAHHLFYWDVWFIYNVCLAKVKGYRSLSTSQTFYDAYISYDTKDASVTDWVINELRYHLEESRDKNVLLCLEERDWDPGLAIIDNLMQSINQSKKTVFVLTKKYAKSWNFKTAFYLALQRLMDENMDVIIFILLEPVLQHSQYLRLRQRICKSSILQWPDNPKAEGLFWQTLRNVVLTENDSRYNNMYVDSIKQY
How it was run: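 Luciferase signal read after 6 h compound incubation at 37 °C in HEK293 cells carrying transiently transfected TLR7 or TLR8 (wild type or LRR2-deletion) and NFκB-luc. Values are lowest effective concentrations from quadruplicate dose-response curves, effect ≥2-fold above assay SD.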

[2] = system: human TLR8 mutant sequence comprising a deletion in the second leucine-rich repeat; test: TLR8 cellular NFκB-luc reporter assay, mutant TLR8 with deletion in the second leucine-rich repeat; assay type: cell-based; parameters: unit not given here; conditions: lowest effective concentration, TLR8 mutant with deletion in second leucine-rich repeat
How it was run: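 HEK293 cells transiently co-transfected with CMV-driven mutant TLR7 or TLR8 plasmid plus NFκB-luc reporter, cultured 48 h at 37 °C, then exposed to compound for 6 h at 37 °C, 5% CO2. Luciferase luminescence measured; dose-response curves from quadruplicates.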

[3] = system: HCV replicon in Huh-7 luc/neo cells; test: Suppression of HCV replicon replication by conditioned media from compound-treated PBMC; assay type: cell-based, HCV type 1 b; conditions: Hepatitis C virus, Huh-7; read-out: PBMC-HUH7_EC50
How it was run: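 Readout is firefly luciferase from an HCV genotype 1b NS3-NS5B bicistronic replicon in Huh-7 cells, measured 24 h after adding conditioned medium. That medium came from overnight culture of compound-treated PBMC (2×10^5/well, human AB serum, at least two donors). Interferon α-2a was the reference.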

CCCCNc1nc(N)ncc1OC [Compound 4]
TLR8-wt_LEC [1]: 2.56 | TLR8-dIRR2_LEC [2]: 1.10 | EC50 [3]: 1.14 µM

CCCCNc1nc(N)ncc1OCC(C)C [Compound 31]
TLR8-wt_LEC [1]: 17.53 | TLR8-dIRR2_LEC [2]: 6.46 | EC50 [3]: 10.4 µM

CCCCCOc1cnc(N)nc1NCCCC [Compound 32]
TLR8-wt_LEC [1]: 9.97 | TLR8-dIRR2_LEC [2]: 4.43 | EC50 [3]: 1.06 µM

CCCCCNc1nc(N)ncc1Oc1ccccc1OC [Compound 38]
TLR8-wt_LEC [1]: >50 | TLR8-dIRR2_LEC [2]: 22.88 | EC50 [3]: 11.3 µM

CCCCCNc1nc(N)ncc1OC [Compound 56]
TLR8-wt_LEC [1]: 5.55 | TLR8-dIRR2_LEC [2]: 1.47 | EC50 [3]: 0.8 µM

CCCCNc1nc(N)ncc1OCc1ccc(-c2ccccc2)cc1 [Compound 58]
TLR8-wt_LEC [1]: 3.84 | TLR8-dIRR2_LEC [2]: 2.17 | EC50 [3]: 2.99 µM

CCCCNc1nc(N)ncc1OCC [Compound 60]
TLR8-wt_LEC [1]: 2.08 | TLR8-dIRR2_LEC [2]: 0.65 | EC50 [3]: 1.91 µM

CCCCCNc1nc(N)ncc1OCC [Compound 63]
TLR8-wt_LEC [1]: 6.35 | TLR8-dIRR2_LEC [2]: 1.94 | EC50 [3]: 2.69 µM

CCCCNc1nc(N)ncc1Oc1ccccc1OC [Compound 64]
TLR8-wt_LEC [1]: 18.43 | TLR8-dIRR2_LEC [2]: 7.65 | EC50 [3]: 4.29 µM

CCCCCCNc1nc(N)ncc1OCC [Compound 70]
TLR8-wt_LEC [1]: >24.59 | TLR8-dIRR2_LEC [2]: >24.59 | EC50 [3]: > 23.8 µM
